These results are taken from patent US11952364B2, “TRK inhibitors useful as anticancer drugs” (TYLIGAND BIOSCIENCE (SHANGHAI) LIMITED, priority 2018, dated 2024).

The target in data set [1] is CDK11 (Homo sapiens (Human), UniProt Q9BWU1). Description: KINOMEscan competition binding assay. The protocol:
(§1) The experiment was performed according to the standard kinase activity determination protocol by Eurofins DiscoverX Corporation (11180 Roselle St. Suite D, San Diego, CA, USA, www.discoverX.com). Specifically, the experiment was conducted using the KINOMEscan™ screening platform, which adopts an active site-directed competition binding assay to quantitatively measure the interaction between test compounds and more than hundreds of human kinases and disease-related mutants. The working principle of the screening platform and kinase assay methods are well known in the art, for example, see www.discoverX.com.

The target in data set [2] is CDKL2 (Homo sapiens (Human), UniProt Q92772). Description: KINOMEscan competition binding assay. The procedure: as §1
CDKL2, sequence (Q92772 whole entry): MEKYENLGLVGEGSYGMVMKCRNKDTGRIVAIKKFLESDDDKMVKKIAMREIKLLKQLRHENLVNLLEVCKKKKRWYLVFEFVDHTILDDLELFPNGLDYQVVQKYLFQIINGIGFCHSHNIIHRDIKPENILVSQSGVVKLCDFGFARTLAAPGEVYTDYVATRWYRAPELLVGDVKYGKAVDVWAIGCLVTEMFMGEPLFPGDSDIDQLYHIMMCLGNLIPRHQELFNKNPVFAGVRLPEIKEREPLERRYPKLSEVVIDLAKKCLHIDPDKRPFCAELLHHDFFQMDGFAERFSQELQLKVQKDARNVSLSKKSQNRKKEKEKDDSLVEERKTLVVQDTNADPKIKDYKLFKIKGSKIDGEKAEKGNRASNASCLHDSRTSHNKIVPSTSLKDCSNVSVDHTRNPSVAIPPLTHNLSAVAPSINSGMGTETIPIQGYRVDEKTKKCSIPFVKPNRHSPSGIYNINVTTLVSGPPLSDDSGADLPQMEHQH
The target in data set [3] is DDR1 (Homo sapiens (Human), UniProt Q08345). Description: KINOMEscan competition binding assay. The protocol:
as §1

The target in data set [4] is DDR2 (Homo sapiens (Human), UniProt Q16832). Description: KINOMEscan competition binding assay. The procedure:
as §1

In data set [5] the target is EPHA8 (Homo sapiens (Human), UniProt P29322). Description: KINOMEscan competition binding assay. The protocol:
as §1

For data set [6], the target named is FLT4 (Homo sapiens (Human), UniProt P35916). Description: KINOMEscan competition binding assay. The procedure: as §1
The target of data set [7] is HIPK4 (Homo sapiens (Human), UniProt Q8NE63). Description: KINOMEscan competition binding assay. The procedure: as §1
For data set [8], the target named is KIT (Homo sapiens (Human), UniProt P10721). Description: KINOMEscan competition binding assay. The procedure:
as §1

Data set [9] deals with KIT(L576P) (Homo sapiens (Human), UniProt P10721, L576P). Description: KINOMEscan competition binding assay. The procedure: as §1
Data set [10] has as its target MET(M1250T) (Homo sapiens (Human), UniProt P08581, M1250T). Description: KINOMEscan competition binding assay. The protocol:
as §1

Data set [11] concerns the target MKNK1 (Homo sapiens (Human), UniProt Q9BUB5). Description: KINOMEscan competition binding assay. The procedure:
as §1

The target in data set [12] is MYO3B (Homo sapiens (Human), UniProt Q8WXR4). Description: KINOMEscan competition binding assay. The procedure:
as §1

In data set [13] the target is NEK9 (Homo sapiens (Human), UniProt Q8TD19). Description: KINOMEscan competition binding assay. The protocol:
as §1

Data set [14] has as its target PLK4 (Homo sapiens (Human), UniProt O00444). Description: KINOMEscan competition binding assay. The protocol:
as §1

In data set [15] the target is RET(M918T) (Homo sapiens (Human), UniProt P07949, M918T). Description: KINOMEscan competition binding assay. The protocol:
as §1

Data set [16] addresses TRKA (Homo sapiens (Human), UniProt P04629). Description: KINOMEscan competition binding assay. The procedure:
as §1

Data set [17] has as its target TRKC (Homo sapiens (Human), UniProt Q16288). Description: KINOMEscan competition binding assay. The protocol:
as §1

A short description of data set [18]: Metabolic stability in liver microsomes (overall statement). Type of data set: in vitro ADME. To be noted: statement in words. The text has this: According to standard methods conventional in the art for in vitro metabolic stability studies, for example those protocols described in Kems, Edward H. and Di Li (2008). Drug-like Properties: Concepts. Structure Design and Methods: from ADME to Toxicity Optimization. San Diego: Academic Press; Di, Li et al., Optimization of a Higher Throughput Microsomal Stability Screening Assay for Profiling Drug Discovery Candidates, J. Biomol. Screen. 2003, 8(4), 453., the metabolic stability test in liver microsomes of the present compound was performed analogously as follows.
The in vitro metabolic stability of the compound in 5 species (mouse, rat, dog, monkey, and human) was evaluated by liver microsomal stability test. 0.1M potassium phosphate buffer solution (pH 7.4, containing 1.0 mM EDTA) was prepared. The test compound and the control compound were prepared into a 10 mM DMSO solution, and then 10 μL of the 10 mM DMSO compound solution was added to 190 μL of acetonitrile to prepare a 500 μM compound solution. […]
The natural logarithm of the residue percentage at each time point was subjected to linearly regression as a factor of incubation time to obtain Slope k, and then the liver microsome clearance rate (CLint^mic) and in vitro half-life (T½) were calculated according to the following formula: […]

The inhibition is the share of the control response that was lost under treatment. Low values mean little suppression, high ones strong suppression.

MET(M1250T), sequence (P08581 25-1390 M1250T): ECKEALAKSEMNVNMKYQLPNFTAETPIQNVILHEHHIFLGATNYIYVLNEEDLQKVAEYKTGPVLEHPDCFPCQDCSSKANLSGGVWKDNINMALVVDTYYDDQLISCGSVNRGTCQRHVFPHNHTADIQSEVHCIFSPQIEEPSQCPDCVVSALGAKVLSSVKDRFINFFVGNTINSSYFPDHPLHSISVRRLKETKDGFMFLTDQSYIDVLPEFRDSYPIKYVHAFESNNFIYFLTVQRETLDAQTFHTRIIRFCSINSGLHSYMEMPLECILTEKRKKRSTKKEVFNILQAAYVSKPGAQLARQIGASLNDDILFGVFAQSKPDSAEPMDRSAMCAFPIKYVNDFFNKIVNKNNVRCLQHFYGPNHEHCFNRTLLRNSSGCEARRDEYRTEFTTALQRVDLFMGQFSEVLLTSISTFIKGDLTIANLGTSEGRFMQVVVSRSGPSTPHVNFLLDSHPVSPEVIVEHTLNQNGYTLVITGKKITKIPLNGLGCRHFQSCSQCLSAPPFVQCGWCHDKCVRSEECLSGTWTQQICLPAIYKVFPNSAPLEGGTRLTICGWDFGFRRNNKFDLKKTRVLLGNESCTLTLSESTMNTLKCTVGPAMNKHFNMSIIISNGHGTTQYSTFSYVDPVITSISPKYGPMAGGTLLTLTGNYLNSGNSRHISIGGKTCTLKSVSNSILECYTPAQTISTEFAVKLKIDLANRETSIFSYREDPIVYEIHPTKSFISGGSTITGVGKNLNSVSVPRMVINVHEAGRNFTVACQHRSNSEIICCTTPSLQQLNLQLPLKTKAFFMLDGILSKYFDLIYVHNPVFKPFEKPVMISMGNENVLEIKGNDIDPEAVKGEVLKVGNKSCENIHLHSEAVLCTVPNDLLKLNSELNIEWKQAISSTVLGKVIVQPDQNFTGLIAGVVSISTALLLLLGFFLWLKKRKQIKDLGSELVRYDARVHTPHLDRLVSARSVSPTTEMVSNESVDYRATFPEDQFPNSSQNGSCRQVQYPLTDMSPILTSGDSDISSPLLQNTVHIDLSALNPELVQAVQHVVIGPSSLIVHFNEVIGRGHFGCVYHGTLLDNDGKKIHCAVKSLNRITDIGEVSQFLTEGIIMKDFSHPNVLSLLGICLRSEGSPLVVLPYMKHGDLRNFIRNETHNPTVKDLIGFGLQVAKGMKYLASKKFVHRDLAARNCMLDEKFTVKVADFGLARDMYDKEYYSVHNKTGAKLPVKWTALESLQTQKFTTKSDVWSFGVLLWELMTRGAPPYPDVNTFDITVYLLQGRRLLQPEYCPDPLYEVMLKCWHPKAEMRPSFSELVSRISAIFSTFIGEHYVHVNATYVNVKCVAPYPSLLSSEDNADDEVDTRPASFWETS
DDR2, sequence (Q16832 22-855): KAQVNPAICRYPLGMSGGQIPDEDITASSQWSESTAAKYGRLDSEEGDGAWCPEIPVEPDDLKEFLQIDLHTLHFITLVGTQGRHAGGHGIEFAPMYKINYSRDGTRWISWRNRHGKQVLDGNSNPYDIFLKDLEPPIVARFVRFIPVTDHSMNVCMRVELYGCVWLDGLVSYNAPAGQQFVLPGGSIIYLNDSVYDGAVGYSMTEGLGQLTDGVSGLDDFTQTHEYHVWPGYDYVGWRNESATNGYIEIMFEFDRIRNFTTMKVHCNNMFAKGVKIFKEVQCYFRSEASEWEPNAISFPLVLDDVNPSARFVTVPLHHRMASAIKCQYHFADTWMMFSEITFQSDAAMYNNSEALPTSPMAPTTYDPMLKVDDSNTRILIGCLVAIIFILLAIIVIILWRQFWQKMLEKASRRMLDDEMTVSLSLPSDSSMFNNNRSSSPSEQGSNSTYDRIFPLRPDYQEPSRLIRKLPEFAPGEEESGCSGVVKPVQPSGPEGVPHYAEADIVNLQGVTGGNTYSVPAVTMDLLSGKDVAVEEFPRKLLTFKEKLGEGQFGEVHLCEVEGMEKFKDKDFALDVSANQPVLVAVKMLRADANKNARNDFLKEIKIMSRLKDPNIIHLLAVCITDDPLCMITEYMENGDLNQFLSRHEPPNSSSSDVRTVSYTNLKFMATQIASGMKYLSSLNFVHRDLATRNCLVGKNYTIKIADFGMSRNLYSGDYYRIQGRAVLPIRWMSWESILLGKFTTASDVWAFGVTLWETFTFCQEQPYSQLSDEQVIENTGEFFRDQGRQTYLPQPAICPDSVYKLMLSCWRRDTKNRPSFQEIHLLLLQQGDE
TRKA, sequence (P04629 33-796): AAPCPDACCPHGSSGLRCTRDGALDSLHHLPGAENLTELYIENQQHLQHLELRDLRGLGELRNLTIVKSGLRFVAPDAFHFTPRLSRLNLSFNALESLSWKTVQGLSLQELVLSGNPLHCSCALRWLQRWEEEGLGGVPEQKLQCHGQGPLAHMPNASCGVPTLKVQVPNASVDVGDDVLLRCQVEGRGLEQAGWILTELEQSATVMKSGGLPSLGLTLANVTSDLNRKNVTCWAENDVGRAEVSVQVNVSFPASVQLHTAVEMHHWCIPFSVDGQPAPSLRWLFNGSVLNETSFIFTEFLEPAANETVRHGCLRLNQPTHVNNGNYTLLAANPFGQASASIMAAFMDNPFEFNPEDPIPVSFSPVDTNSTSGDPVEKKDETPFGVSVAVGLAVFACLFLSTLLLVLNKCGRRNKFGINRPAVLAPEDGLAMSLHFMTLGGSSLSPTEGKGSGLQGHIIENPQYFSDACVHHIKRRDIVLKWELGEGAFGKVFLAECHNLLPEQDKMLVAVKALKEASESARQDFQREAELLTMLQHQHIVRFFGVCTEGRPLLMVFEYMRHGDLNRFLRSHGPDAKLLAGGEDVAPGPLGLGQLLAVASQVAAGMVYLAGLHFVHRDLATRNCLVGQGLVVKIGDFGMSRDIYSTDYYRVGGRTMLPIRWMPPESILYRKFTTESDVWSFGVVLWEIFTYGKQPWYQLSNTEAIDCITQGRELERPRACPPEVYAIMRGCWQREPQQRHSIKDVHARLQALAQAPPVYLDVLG
EPHA8, sequence (P29322 28-1005): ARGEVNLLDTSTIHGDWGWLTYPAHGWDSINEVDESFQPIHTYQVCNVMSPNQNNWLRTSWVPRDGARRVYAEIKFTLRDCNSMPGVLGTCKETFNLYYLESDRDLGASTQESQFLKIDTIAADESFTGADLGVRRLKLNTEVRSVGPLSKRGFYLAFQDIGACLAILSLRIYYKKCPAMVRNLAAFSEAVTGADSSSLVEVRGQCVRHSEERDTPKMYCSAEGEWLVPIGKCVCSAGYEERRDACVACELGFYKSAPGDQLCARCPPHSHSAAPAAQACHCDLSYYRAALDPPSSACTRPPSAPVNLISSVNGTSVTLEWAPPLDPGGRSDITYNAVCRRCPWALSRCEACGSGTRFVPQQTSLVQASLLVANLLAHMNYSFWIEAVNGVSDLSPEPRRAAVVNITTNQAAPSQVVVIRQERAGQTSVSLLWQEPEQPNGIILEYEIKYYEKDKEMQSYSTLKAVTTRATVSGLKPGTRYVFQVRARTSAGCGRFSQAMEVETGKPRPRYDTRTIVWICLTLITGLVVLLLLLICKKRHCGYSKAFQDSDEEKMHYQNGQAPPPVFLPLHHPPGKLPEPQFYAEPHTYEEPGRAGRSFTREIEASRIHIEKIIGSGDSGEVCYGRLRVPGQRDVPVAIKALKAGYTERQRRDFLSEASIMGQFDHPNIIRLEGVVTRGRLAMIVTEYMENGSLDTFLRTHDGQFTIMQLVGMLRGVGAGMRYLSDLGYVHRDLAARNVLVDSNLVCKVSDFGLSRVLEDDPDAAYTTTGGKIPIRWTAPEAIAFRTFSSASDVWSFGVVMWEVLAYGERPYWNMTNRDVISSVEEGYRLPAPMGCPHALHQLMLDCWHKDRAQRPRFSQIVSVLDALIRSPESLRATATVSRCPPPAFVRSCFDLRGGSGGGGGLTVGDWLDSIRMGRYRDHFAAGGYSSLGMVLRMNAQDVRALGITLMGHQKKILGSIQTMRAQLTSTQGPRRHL
MKNK1, sequence (Q9BUB5 whole entry): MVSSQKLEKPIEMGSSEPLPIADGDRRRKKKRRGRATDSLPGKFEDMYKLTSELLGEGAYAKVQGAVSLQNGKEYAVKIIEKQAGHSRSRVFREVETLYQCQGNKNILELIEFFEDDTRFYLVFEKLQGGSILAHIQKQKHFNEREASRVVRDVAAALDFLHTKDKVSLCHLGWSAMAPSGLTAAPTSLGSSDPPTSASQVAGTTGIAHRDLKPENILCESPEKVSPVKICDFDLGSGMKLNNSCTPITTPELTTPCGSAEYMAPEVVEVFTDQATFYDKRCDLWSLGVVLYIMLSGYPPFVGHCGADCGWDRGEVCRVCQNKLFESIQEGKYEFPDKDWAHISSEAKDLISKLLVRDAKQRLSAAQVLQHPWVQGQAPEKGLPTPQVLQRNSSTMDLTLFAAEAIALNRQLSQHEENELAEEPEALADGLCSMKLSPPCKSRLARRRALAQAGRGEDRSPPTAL

As to `COc1ccc(C(=O)Nc2ccc(Oc3cc4cnn(C)c4cc3-c3cn[nH]c3)c(F)c2)c(=O)n1-c1ccc(F)cc1` [Example 12, N-(3-fluoro-4-(1-methyl-6-(1H-pyrazol-4-yl)-1H-indazol-5-yloxy)phenyl)-1-(4-fluorophenyl)-6-methoxy-2-oxo-1,2-dihydropyridine-3-carboxamide], the inhibition at 2 µM came to 100% in data set [1]; 100% in [2]; 100% in [3]; 100% in [4]; 96% in [5]; 92% in data set [6]. The inhibition at 2 µM in [7] turned out to be 97%; in data set [8], 100%; in data set [9] it was 100%; in data set [10] it was 99%; in data set [11] it was 95%; in data set [12] it was 100%. The inhibition at 2 µM in data set [13] was found to be 95%; in [14] it was 90%; in [15], 95%; in [16] it was 100%; in data set [17] it was 97%. The “metabolic stability in liver microsomes compared with Merestinib” value in data set [18] is “significantly improved metabolic stability in liver microsomes”.
